Experimental data published in PubChem BioAssay (NCI).
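Interpolation was linear, between the two tested concentrations surrounding the appropriate level; five concentrations were tested over 48 hours in 96-well plates. GI50 marks 50% less growth. TGI denotes the concentration required for complete inhibition of growth.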

Key:
Test in all cases: inhibition of tumour cell growth, NCI panel, 48 h
[1] = tested on: RXF 393 renal
[2] = tested on: OVCAR-3 ovarian
[3] = tested on: HCC-2998 colon
[4] = tested on: U251 CNS
[5] = tested on: 786-0 renal
[6] = tested on: SNB-19 CNS
[7] = tested on: UACC-257 melanoma
[8] = tested on: NCI/ADR-RES ovarian
[9] = tested on: SK-MEL-28 melanoma
[10] = tested on: SR leukemia
[11] = tested on: DU-145 prostate
[12] = tested on: K-562 leukemia
[13] = tested on: SW-620 colon
[14] = tested on: M14 melanoma
[15] = tested on: MDA-MB-435
[16] = tested on: EKVX NSCLC
[17] = tested on: HL-60(TB) leukemia
[18] = tested on: OVCAR-4 ovarian
[19] = tested on: SF-295 CNS
[20] = tested on: UO-31 renal
[21] = tested on: MALME-3M melanoma
[22] = tested on: IGROV1 ovarian
[23] = tested on: NCI-H522 lung
[24] = tested on: SF-539 CNS
[25] = tested on: SF-268 CNS
[26] = tested on: BT-549 breast
[27] = tested on: UACC-62 melanoma
[28] = tested on: SK-OV-3 ovarian

COc1cc2c(cc1O)CC[C@@H]1[C@@H]2CC[C@]2(C)[C@@H](OCCCN(C)C)CC[C@@H]12
GI50 [1]: 88.9 nM
TGI [1]: 226 nM
GI50 [2]: 155 nM
TGI [2]: 543 nM
GI50 [3]: 130 nM
TGI [3]: 346 nM
GI50 [4]: 126 nM
TGI [4]: 334 nM
GI50 [5]: 90.5 nM
TGI [5]: 201 nM
GI50 [6]: 303 nM
TGI [6]: 1060 nM
GI50 [7]: 104 nM
TGI [7]: 206 nM
GI50 [8]: 133 nM
TGI [8]: 440 nM
GI50 [9]: 102 nM
TGI [9]: 243 nM
GI50 [10]: 120 nM
TGI [10]: 390 nM
GI50 [11]: 161 nM
TGI [11]: 603 nM
GI50 [12]: 100 nM
TGI [12]: 331 nM
GI50 [13]: 160 nM
TGI [13]: 513 nM
GI50 [14]: 93.3 nM
TGI [14]: 190 nM
GI50 [15]: 89.9 nM
TGI [15]: 182 nM
GI50 [16]: 208 nM
TGI [16]: 958 nM
GI50 [17]: 96.8 nM
TGI [17]: 203 nM
GI50 [18]: 180 nM
TGI [18]: 871 nM
GI50 [19]: 98 nM
TGI [19]: 208 nM
GI50 [20]: 224 nM
TGI [20]: 860 nM
GI50 [21]: 90.2 nM
TGI [21]: 194 nM
GI50 [22]: 523 nM
TGI [22]: 1430 nM
GI50 [23]: 99.9 nM
TGI [23]: 248 nM
GI50 [24]: 86.7 nM
TGI [24]: 172 nM
GI50 [25]: 182 nM
TGI [25]: 801 nM
GI50 [26]: 116 nM
TGI [26]: 394 nM
GI50 [27]: 110 nM
TGI [27]: 269 nM
GI50 [28]: 198 nM
TGI [28]: 675 nM
